Results published in patent US10765114B2, “4-amino-6-(pyridyl and 2-substitutedphenyl)-picolinates and 6-amino-2-(pyridyl and 2-substitutedphenyl)-pyrimidine-4-carboxylates and their use as herbicides” (Dow AgroSciences LLC, priority 2013, dated 2020).

How the values were obtained:
[1] = test system: BRSSS; assay: Post-Emergent Test III (Wheat and Barley); format: in vivo; details: for Visual Growth Reduction (%) 21 Days After Application, BRSSS: postemergence; for GR50, BRSSS: effective dose for growth reduction of 50 percent; for GR50, BRSSS / GR80, BRSSS / GR90, BRSSS: probit analysis; for GR80, BRSSS: effective dose for growth reduction of 80 percent; for GR90, BRSSS: effective dose for growth reduction of 90 percent
Summary of the method: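 Greenhouse plants (~14 h photoperiod, 18/17 °C) at second-third true leaf stage were track-sprayed at 187 L/ha with acetone/DMSO-based spray containing Agri-Dex crop oil and X-77. Rates ran from the high rate down to 1/16×. Injury was scored visually after 21 days (0-100%); GR values came from probit analysis.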

[2] = test system: PHAMI (littleseed canarygrass); assay: Post-Emergent Test III (Wheat and Barley); format: in vivo, Phalaris minor; details: for Visual Growth Reduction (%) 21 Days After Application, PHAMI: postemergence; for GR50, PHAMI: effective dose for growth reduction of 50 percent; for GR50, PHAMI / GR80, PHAMI / GR90, PHAMI: probit analysis; for GR80, PHAMI: effective dose for growth reduction of 80 percent; for GR90, PHAMI: effective dose for growth reduction of 90 percent
Procedure: Seeds of the desired test plant species were planted in Sun Gro MetroMix® 306 planting mixture, which typically has a pH of 6.0 to 6.8 and an organic matter content of about 30 percent, in plastic pots with a surface area of 103.2 square centimeters (cm^2). When required to ensure good germination and healthy plants, a fungicide treatment and/or other chemical or physical treatment was applied. The plants were grown for 7-36 days in a greenhouse with an approximate 14 h photoperiod which was maintained at about 18° C. during the day and 17° C. during the night. Nutrients and water were added on a regular basis and supplemental lighting was provided with overhead metal halide 1000-Watt lamps as necessary. The plants were employed for testing when they reached the second or third true leaf stage.
A weighed amount, determined by the highest rate to be tested, of each test compound was placed in a 25 mL glass vial and was dissolved in 4 mL of a 97:3 v/v mixture of acetone and DMSO to obtain concentrated stock solutions. […] The concentrated stock solutions obtained were diluted with 20 mL of an aqueous mixture containing acetone, water, isopropyl alcohol, DMSO, Agri-Dex crop oil concentrate, and X-77 surfactant in a 48:39:10:1.5:1.5:0.02 v/v ratio to obtain spray solutions containing the highest application rates. Additional application rates were obtained by serial dilution of 12 mL of the high rate solution into a solution containing 2 mL of 97:3 v/v mixture of acetone and DMSO and 10 mL of an aqueous mixture containing acetone, water, isopropyl alcohol, DMSO, Agri-Dex crop oil concentrate, and X-77 surfactant in a 48:39:10:1.5:1.5:0.02 v/v ratio to obtain ½×, ¼×, ⅛× and 1/16× rates of the high rate. Compound requirements are based upon a 12 mL application volume at a rate of 187 liters per hectare (L/ha). Formulated compounds were applied to the plant material with an overhead Mandel track sprayer equipped with 8002E nozzles calibrated to deliver 187 L/ha over an application area of 0.503 square meters at a spray height of 18 inches (43 cm) above the average plant canopy height. Control plants were sprayed in the same manner with the solvent blank.
The treated plants and control plants were placed in a greenhouse as described above and watered by subirrigation to prevent wash-off of the test compounds. After 21 dAYS, the condition of the test plants as compared with that of the untreated plants was determined visually and scored on a scale of 0 to 100 percent where 0 corresponds to no injury and 100 corresponds to complete kill and presented as indicated in Table A.
By applying the well-accepted probit analysis as described by J. Berkson in Journal of the American Statistical Society, 48, 565 (1953) and by D. Finney in “Probit Analysis” Cambridge University Press (1952), herbicidal injury of a specific compound at various rates can be used to calculate GR10, GR20, GR50, GR80 and GR90 values, which are defined as growth reduction factors that correspond to the effective dose of herbicide required to provide plant growth reduction (GR) of 10 percent, 20 percent, 50 percent, 80 percent and 90 percent, respectively. Probit analysis was applied to data collected from multiple dose rates of individual compounds utilizing the procedures explained in the following examples. The analysis of those dose rates is captured in the following tables.

Row | Compound | Visual Growth Reduction (%) 21 Days After Application, BRSSS ([1]; 35 g ai/ha) | Visual Growth Reduction (%) 21 Days After Application, BRSSS ([1]; 70 g ai/ha) | Visual Growth Reduction (%) 21 Days After Application, BRSSS ([1]; 140 g ai/ha) | GR50, BRSSS [1] [g ai/ha] | GR80, BRSSS [1] [g ai/ha] | GR90, BRSSS [1] [g ai/ha] | Visual Growth Reduction (%) 21 Days After Application, PHAMI ([2]; 35 g ai/ha) | Visual Growth Reduction (%) 21 Days After Application, PHAMI ([2]; 70 g ai/ha) | Visual Growth Reduction (%) 21 Days After Application, PHAMI ([2]; 140 g ai/ha) | GR50, PHAMI [2] [g ai/ha] | GR80, PHAMI [2] [g ai/ha] | GR90, PHAMI [2] [g ai/ha]
1 | Nc1c(F)c(-c2ccc(C(F)(F)F)nc2)nc(C(=O)O)c1Cl [Compound 46, 4-amino-5-chloro-3-fluoro-6′-(trifluoromethyl)-[2,3′-bipyridine]-6-carboxylic acid] | D (60-74) | D (60-74) | C (75-84) | 11 | >140 | >140 | B (85-94) | B (85-94) | B (85-94) | 15 | 24 | 31
2 | Cc1c(-c2cc(N)c(Cl)c(C(=O)O)n2)ccc(Cl)c1F [Compound 52] | B (85-94) | B (85-94) | B (85-94) | 1 | 11 | 41 | C (75-84) | B (85-94) | B (85-94) | 18 | 38 | 56
